Reference: patent US9051551B2, “Methods and compositions for increasing sensitivity to tyrosine kinase inhibitors” (The University of Western Australia, priority 2009, dated 2015)

Columns and labels:
[1] = cited from earlier work
FaDu HNC cell line = experiment: Erlotinib sensitivity assay (CellTitre 96 cell viability); details: Homo sapiens, 72 h, read-out: Erlotinib sensitivity (EC50)
SCC-9 HNC cell line = experiment: as above; details: Homo sapiens, SCC-9, 72 h, read-out: Erlotinib sensitivity (EC50)
HN5 HNC cell line = experiment: as above; details: Homo sapiens, HN5, 72 h, read-out: Erlotinib sensitivity (EC50)

C#Cc1cccc(Nc2ncnc3cc(OCCOC)c(OCCOC)cc23)c1 [erlotinib, N-(3-ethynylphenyl)-6,7-bis(2-methoxyethoxy)quinazolin-4-amine]
Concentration in serum of patients treated with erlotinib [1]: 3000 to 10000 nM
EC50 (FaDu HNC cell line): 8260 nM
EC50 (SCC-9 HNC cell line): 2150 nM
EC50 (HN5 HNC cell line): 640 nM
